How the values were obtained:
[1] = biological target: T1, Adrenergic receptor alpha-2 (Rattus norvegicus, UniProt P22086+P19328+P22909); test: In vitro for binding affinity against Alpha-2 adrenergic receptor by radioligand [3H]clonidine in rat
T1 sequence (P22086 whole entry): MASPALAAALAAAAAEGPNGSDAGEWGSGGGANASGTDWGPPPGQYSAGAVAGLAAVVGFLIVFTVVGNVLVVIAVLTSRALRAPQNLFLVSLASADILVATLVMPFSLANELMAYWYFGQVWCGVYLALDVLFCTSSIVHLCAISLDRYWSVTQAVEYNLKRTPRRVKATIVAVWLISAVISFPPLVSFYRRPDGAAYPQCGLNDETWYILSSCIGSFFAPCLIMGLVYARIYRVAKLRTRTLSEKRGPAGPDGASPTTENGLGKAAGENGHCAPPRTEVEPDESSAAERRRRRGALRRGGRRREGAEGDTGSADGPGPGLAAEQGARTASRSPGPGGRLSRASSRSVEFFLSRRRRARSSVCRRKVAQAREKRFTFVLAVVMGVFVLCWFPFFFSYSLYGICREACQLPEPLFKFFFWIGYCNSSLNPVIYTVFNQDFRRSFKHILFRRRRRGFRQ
T1 sequence (P19328 whole entry): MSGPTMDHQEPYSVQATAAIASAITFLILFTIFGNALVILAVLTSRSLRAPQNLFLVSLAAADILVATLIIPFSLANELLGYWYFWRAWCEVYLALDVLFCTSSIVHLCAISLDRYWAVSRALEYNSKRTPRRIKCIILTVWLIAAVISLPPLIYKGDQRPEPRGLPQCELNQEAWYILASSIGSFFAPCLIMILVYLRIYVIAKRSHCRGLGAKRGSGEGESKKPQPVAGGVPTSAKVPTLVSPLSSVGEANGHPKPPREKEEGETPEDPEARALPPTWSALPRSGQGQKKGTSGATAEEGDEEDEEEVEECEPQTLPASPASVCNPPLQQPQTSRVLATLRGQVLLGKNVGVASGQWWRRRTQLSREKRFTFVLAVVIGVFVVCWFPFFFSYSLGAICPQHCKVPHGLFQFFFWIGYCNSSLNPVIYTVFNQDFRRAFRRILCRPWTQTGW
T1 sequence (P22909 whole entry): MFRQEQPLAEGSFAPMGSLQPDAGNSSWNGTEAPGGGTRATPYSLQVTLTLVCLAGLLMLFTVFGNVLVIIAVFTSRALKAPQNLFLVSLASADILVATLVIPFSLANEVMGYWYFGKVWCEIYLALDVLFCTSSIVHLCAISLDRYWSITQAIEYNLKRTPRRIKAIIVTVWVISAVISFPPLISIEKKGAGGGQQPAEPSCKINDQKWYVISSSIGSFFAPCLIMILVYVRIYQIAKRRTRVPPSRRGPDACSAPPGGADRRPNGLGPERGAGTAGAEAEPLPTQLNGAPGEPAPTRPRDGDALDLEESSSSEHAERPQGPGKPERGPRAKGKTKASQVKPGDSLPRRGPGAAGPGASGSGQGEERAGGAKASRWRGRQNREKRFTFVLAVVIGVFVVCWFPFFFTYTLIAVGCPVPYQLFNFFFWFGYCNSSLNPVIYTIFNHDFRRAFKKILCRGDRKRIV

[2] = biological target: T2, Phenylethanolamine N-methyltransferase (Bos taurus, UniProt P10938); test: In vitro for inhibition of Phenylethanolamine N-Methyltransferase (PNMT)
T2 sequence (P10938 whole entry): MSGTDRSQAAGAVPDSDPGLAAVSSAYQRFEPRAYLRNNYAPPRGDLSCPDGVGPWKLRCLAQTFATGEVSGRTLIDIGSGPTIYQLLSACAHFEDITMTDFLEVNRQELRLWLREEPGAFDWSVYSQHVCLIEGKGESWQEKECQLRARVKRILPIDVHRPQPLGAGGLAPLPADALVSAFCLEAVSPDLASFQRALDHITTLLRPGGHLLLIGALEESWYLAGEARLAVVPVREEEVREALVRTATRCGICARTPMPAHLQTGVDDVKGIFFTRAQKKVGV

[3] = Selectivity ratio between Ki of alpha-2 adrenoceptor and Ki of PNMT

| SMILES | Ki [1] [µM] | Ki [2] [µM] | Ratio [3] |
| --- | --- | --- | --- |
| C[C@H]1Cc2ccccc2CN1 | 0.52 | 1.01 | 0.51 |
| CC1Cc2ccccc2CN1 (racemic) | 0.84 | 2.13 | 0.39 |
| C[C@@H]1Cc2ccccc2CN1 | 6.2 | 38.3 | 0.16 |
| c1ccc2c(c1)CNCCO2 | 4.1 | 21.2 | 0.19 |
| c1ccc2c(c1)CNCCS2 | 4.6 | 4.1 | 1.1 |
| c1ccc2c(c1)CCNC2 [1,2,3,4-TETRAHYDROISOQUINOLINE] | […] | 9.67 | […] |
| NCc1ccccc1 [BENZYLAMINE] | 20 | 179 | 0.11 |

The remaining lines, values ahead:

| Ki [1] [µM] | Ki [2] [µM] | Ratio [3] | SMILES |
| --- | --- | --- | --- |
| 11 | 3.34 | 3.2 | c1ccc2c(c1)CCCNC2 |
| 0.82 | 231 | 0.0035 | c1ccc2c(c1)CNC2 |
| 16 | 21.3 | 0.73 | c1ccc2c(c1)CCCCNC2 |
| 2.6 | 28 | 0.093 | c1ccc2c(c1)CNCCN2 |
